Test results reported in patent US8906928B2, “Substituted pyrazolo-pyrrolo-pyridine-dione compounds” (ArQule, Inc., priority 2009, dated 2014).

Experiments:
[1] = tested on: DLD-1; assay: MTS assay (cell growth inhibition), DLD-1; type: cell-based; conditions: DLD-1 cells, 72 hours incubation with test compound; concentration not given
Method in brief: (§1)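 First, seed 3000 cells per well in low-serum (1% FBS) DMEM and culture 18 h. Next, add compounds prepared at 300× in DMSO and diluted 1:40 in DMEM; incubate 72 h. Finally, add MTS/PMS for 4 h and measure absorbance at 492 nm.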

[2] = tested on: Kato III; assay: MTS assay (cell growth inhibition), Kato III; type: cell-based; conditions: Kato III cells, 72 hours incubation with test compound; concentration not given
Method in brief: as §1

[3] = tested on: MDA-MB; assay: MTS assay (cell growth inhibition), MDA-MB; type: cell-based; conditions: MDA-MB cells, 72 hours incubation with test compound; concentration not given
Method in brief: as §1

[4] = tested on: NCI-H1299; assay: MTS assay (cell growth inhibition), NCI-H1299; type: cell-based; conditions: NCI-H1299 cells, 72 hours incubation with test compound; concentration not given
Method in brief: as §1

[5] = tested on: PACA-2; assay: MTS assay (cell growth inhibition), PACA-2; type: cell-based; conditions: PACA-2 cells, 72 hours incubation with test compound; concentration not given
Method in brief: as §1

[6] = tested on: PC-3; assay: MTS assay (cell growth inhibition), PC-3; type: cell-based; conditions: PC-3 cells, 72 hours incubation with test compound; concentration not given
Method in brief: as §1

Row | Compound | melting point [°C] | MTS CELL KILL DATA (% INHIBITION) DLD-1 [1] | MTS CELL KILL DATA (% INHIBITION) Kato III [2] | MTS CELL KILL DATA (% INHIBITION) MDA-MB [3] | MTS CELL KILL DATA (% INHIBITION) NCI-H1299 [4] | MTS CELL KILL DATA (% INHIBITION) PACA-2 [5] | MTS CELL KILL DATA (% INHIBITION) PC-3 [6]
1 | O=C1c2cnc3[nH]ncc3c2C(=O)N1CCC1CCNCC1 [Example 70, 7-(2-piperidin-4-ylethyl)pyrazolo[3,4-b]pyrrolo[3,4-d]pyridine-6,8(3H,7H)-dione] | > 300 | – | – | – | – | – | –
2 | CC(CCN1C(=O)c2cnc3[nH]ncc3c2C1=O)CC(C)(C)C (centres unmarked) [Example 117, 7-(3,5,5-trimethylhexyl)pyrazolo[3,4-b]pyrrolo[3,4-d]pyridine-6,8(3H,7H)-dione] | – | C (C = <50% INHIBITION) | C (C = <50% INHIBITION) | A (A = 80-100% INHIBITION) | C (C = <50% INHIBITION) | C (C = <50% INHIBITION) | A (A = 80-100% INHIBITION)
3 | CCCCOc1ccc(CN2C(=O)c3cnc4[nH]ncc4c3C2=O)cc1 [Example 15, 7-(4-butoxybenzyl)pyrazolo[3,4-b]pyrrolo[3,4-d]pyridine-6,8(3H,7H)-dione] | – | C (C = <50% INHIBITION) | C (C = <50% INHIBITION) | A (A = 80-100% INHIBITION) | C (C = <50% INHIBITION) | C (C = <50% INHIBITION) | B (B = 50-79% INHIBITION)
4 | O=C1c2cnc3[nH]ncc3c2C(=O)N1Cc1cccc(I)c1 [Example 101, 7-(3-iodobenzyl)pyrazolo[3,4-b]pyrrolo[3,4-d]pyridine-6,8(3H,7H)-dione] | – | B (B = 50-79% INHIBITION) | A (A = 80-100% INHIBITION) | A (A = 80-100% INHIBITION) | C (C = <50% INHIBITION) | C (C = <50% INHIBITION) | A (A = 80-100% INHIBITION)
5 | O=C1c2cnc3[nH]ncc3c2C(=O)N1CCOc1ccccc1Cl [Example 25, 7-[2-(2-chlorophenoxy)ethyl]pyrazolo[3,4-b]pyrrolo[3,4-d]pyridine-6,8(3H,7H)-dione] | – | C (C = <50% INHIBITION) | C (C = <50% INHIBITION) | A (A = 80-100% INHIBITION) | C (C = <50% INHIBITION) | C (C = <50% INHIBITION) | A (A = 80-100% INHIBITION)

Continued, in another order:

Row | melting point [°C] | Compound | MTS CELL KILL DATA (% INHIBITION) DLD-1 [1] | MTS CELL KILL DATA (% INHIBITION) Kato III [2] | MTS CELL KILL DATA (% INHIBITION) MDA-MB [3] | MTS CELL KILL DATA (% INHIBITION) NCI-H1299 [4] | MTS CELL KILL DATA (% INHIBITION) PACA-2 [5] | MTS CELL KILL DATA (% INHIBITION) PC-3 [6]
6 | 199 to 200 | O=C1c2cnc3[nH]ncc3c2C(=O)N1Cc1ccccc1-c1ccc(F)cc1F [Example 145, 7-[(2′,4′-difluorobiphenyl-2-yl)methyl]pyrazolo[3,4-b]pyrrolo[3,4-d]pyridine-6,8(3H,7H)-dione] | – | – | – | – | – | –
7 | 161 to 163 | CC(c1ccccc1-c1ccccc1)N1C(=O)c2cnc3[nH]ncc3c2C1=O (centres unmarked) [Example 144, 7-(1-biphenyl-2-ylethyl)pyrazolo[3,4-b]pyrrolo[3,4-d]pyridine-6,8(3H,7H)-dione] | – | – | – | – | – | –
8 | 93 to 100 | O=C1c2cnc3[nH]ncc3c2C(=O)N1Cc1ccccc1-c1cccc(F)c1F [Example 141, 7-[(2′,3′-difluorobiphenyl-2-yl)methyl]pyrazolo[3,4-b]pyrrolo[3,4-d]pyridine-6,8(3H,7H)-dione] | – | – | – | – | – | –
9 | 293 to 295 | N#Cc1ccc(CN2C(=O)c3cnc4[nH]ncc4c3C2=O)cc1 [Example 41, 4-[(6,8-dioxo-6,8-dihydropyrazolo[3,4-b]pyrrolo[3,4-d]pyridin-7(3H)-yl)methyl]benzonitrile] | – | – | – | – | – | –
